Experimental data from US10472320B2, “Process to prepare phenolic ethylenediamine diacetic acid compounds” (Akzo Nobel Chemicals International B.V., priority 2015, dated 2019).

Conditions: for appearance of extracted aqueous ligand solution (precipitate formation): after last methyl isobutyl ketone extraction; for concentration of o,o-HBED at which a clear solution was obtained after addition of water: dilution with water after precipitation; for concentration of o,o-HBED at which a clear solution was obtained after addition of water / concentration of o,o-HBED in the extracted aqueous ligand solution: expressed as H4-o,o-HBED; for concentration of o,o-HBED in the extracted aqueous ligand solution: after phenol extraction with methyl isobutyl ketone
Method: (§1) Phenol was extracted from the reaction mixture with methyl isobutyl ketone (250 ml and 3 times 125 ml).
as §1
(§2) Phenol was extracted from the reaction mixture with methyl isobutyl ketone (75 ml and 3 times 50 ml).
(§3) Phenol was extracted from the reaction mixture with methyl isobutyl ketone (100 ml and 3 times 50 ml).
as §3, §2
Phenol was extracted from the reaction mixture with methyl isobutyl ketone (85 ml and 3 times 50 ml).
as §2

Structure (SMILES)	appearance of extracted aqueous ligand solution (precipitate formation)	concentration of o,o-HBED at which a clear solution was obtained after addition of water	concentration of o,o-HBED in the extracted aqueous ligand solution
O=C(O)CN(CCN(CC(=O)O)Cc1ccccc1O)Cc1ccccc1O [Comparative Example 1, N,N′-di(2-hydroxybenzyl)ethylenediamine-N,N′-diacetic acid, reference compound]	soon a large amount of precipitate was formed	approximately 6.2%	–
O=C(O)CN(CCN(CC(=O)O)Cc1ccccc1O)Cc1ccccc1O [Comparative Example 2, N,N′-di(2-hydroxybenzyl)ethylenediamine-N,N′-diacetic acid, reference compound]	turned turbid and a lot of product precipitated	9.6%	–
O=C(O)CN(CCN(CC(=O)O)Cc1ccccc1O)Cc1ccccc1O [Comparative Example 3, N,N′-di(2-hydroxybenzyl)ethylenediamine-N,N′-diacetic acid, reference compound]	turned turbid and a lot of product precipitated	–	–
O=C(O)CN(CCN(CC(=O)O)Cc1ccccc1O)Cc1ccccc1O [Example 1, N,N′-di(2-hydroxybenzyl)ethylenediamine-N,N′-diacetic acid]	–	–	approximately 26%
O=C(O)CN(CCN(CC(=O)O)Cc1ccccc1O)Cc1ccccc1O [Example 2, N,N′-di(2-hydroxybenzyl)ethylenediamine-N,N′-diacetic acid]	became slightly turbid, but the solution could still be handled easily	–	approximately 23%
O=C(O)CN(CCN(CC(=O)O)Cc1ccccc1O)Cc1ccccc1O [Example 3, N,N′-di(2-hydroxybenzyl)ethylenediamine-N,N′-diacetic acid]	became slightly turbid, but the solution could still be handled easily	–	approximately 22%
O=C(O)CN(CCN(CC(=O)O)Cc1ccccc1O)Cc1ccccc1O [Example 4, N,N′-di(2-hydroxybenzyl)ethylenediamine-N,N′-diacetic acid]	remained clear without the formation of any precipitates	–	approximately 22%
O=C(O)CN(CCN(CC(=O)O)Cc1ccccc1O)Cc1ccccc1O [Example 5, N,N′-di(2-hydroxybenzyl)ethylenediamine-N,N′-diacetic acid]	remained clear without the formation of any precipitates	–	approximately 22%
O=C(O)CN(CCN(CC(=O)O)Cc1ccccc1O)Cc1ccccc1O [Example 6, N,N′-di(2-hydroxybenzyl)ethylenediamine-N,N′-diacetic acid]	–	–	approximately 22%
O=C(O)CN(CCN(CC(=O)O)Cc1ccccc1O)Cc1ccccc1O [Example 7, N,N′-di(2-hydroxybenzyl)ethylenediamine-N,N′-diacetic acid]	remained clear without the formation of any precipitates	–	approximately 25%
